Measurements published in patent US12478617B2, “Lipidated peptide inhibitors of interleukin-23 receptor” (JANSSEN BIOTECH, INC., priority 2021, dated 2025).
Starred links: 1 amine or outer side, 2 acyl side, 3 side chain; linkers in the order of their positions; H or OH if unused. Positions of bridges follow the written chain, without caps; N, C: chain ends. Non-standard residues stand in square brackets, D forms with d. Residues, ends and D or L forms follow the SMILES beside them. Groups on a side chain read outwards from the residue. *: point of attachment. Decanoyl(10-O(3-COOH-Ph)) = O=C(O)c1cccc(OCCCCCCCCCC(=O)*)c1; Trp(7-Me) = Cc1cccc2c(C[C@H](N)C(=O)O)c[nH]c12; C20 diacid = O=C(O)CCCCCCCCCCCCCCCCCCC(=O)*; C18 diacid = O=C(O)CCCCCCCCCCCCCCCCC(=O)*; C16 diacid = O=C(O)CCCCCCCCCCCCCCC(=O)*; γGlu = O=C(O)[C@H](CCC(=O)[*:2])N[*:1]; 2Nal = N[C@@H](Cc1ccc2ccccc2c1)C(=O)O; AEF = NCCOc1ccc(C[C@H](N)C(=O)O)cc1; PEG6 = NCCOCCOCCOCCOCCOCCOCCC(=O)O; 3Pal = N[C@@H](Cc1cccnc1)C(=O)O; Pen = CC(C)(S)[C@H](N)C(=O)O; Thp = NC1(C(=O)O)CCOCC1; AEEA = NCCOCCOCC(=O)O; Sar = CNCC(=O)O

target: T1, IL-23R (Homo sapiens, UniProt Q5VWK5); test: IL23R Reporter Assay; assay type: cell-based
T1 construct: HEK293 cells containing IL-23R, IL-12RP31 and a firefly luciferase reporter gene driven by a STAT-inducible promoter (Promega); host or cells: HEK293
T1 sequence (Q5VWK5 24-629): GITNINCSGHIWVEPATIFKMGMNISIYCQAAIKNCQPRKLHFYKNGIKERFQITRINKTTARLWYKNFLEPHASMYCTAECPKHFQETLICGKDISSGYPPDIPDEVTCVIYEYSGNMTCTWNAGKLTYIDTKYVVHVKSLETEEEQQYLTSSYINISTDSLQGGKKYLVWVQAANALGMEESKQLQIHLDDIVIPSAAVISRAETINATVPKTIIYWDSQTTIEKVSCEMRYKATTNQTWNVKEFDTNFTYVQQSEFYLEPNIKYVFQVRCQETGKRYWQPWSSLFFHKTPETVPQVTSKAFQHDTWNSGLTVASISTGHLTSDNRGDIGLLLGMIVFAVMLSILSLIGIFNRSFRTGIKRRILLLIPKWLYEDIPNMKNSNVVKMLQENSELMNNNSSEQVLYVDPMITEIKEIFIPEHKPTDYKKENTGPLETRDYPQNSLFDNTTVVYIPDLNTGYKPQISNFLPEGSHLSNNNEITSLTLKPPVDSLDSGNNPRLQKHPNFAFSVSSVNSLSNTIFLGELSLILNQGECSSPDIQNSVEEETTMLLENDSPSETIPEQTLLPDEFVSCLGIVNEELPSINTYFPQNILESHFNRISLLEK
From the text: IL-23 binding to IL-23 receptors results in the activation of the Signal Transducer and Activator of Transcription 3 (STAT3) by phosphorylation and downstream signaling events. Accordingly. the ability of the inhibitors described herein to block IL-23 action can be assessed by monitoring the status of STAT3 activation in response to IL-23. This may be accomplished in reporter cell assays or in intact cells such as peripheral blood mononuclear cells (PBMCs).
Compounds were serially diluted in 100% (v/v) DMSO) and plated using an Echo acoustic dispenser (Labcyte) into 1536-well non-treated black assay plates (Corning #9146). […] After 5 h at 37° C., 5% CO2, 95% relative humidity, cells were placed at 20° C. and treated with BioGlo reagent (Promega) according to the Manufacturer's instructions. Luminescence was measured on a Pherastar FSX (BMG LabTech).

IC50 [nM] | Compound
0.067 | CC(=O)NCCCC[C@@H]1NC(=O)[C@H](Cc2c[nH]c3c(C)cccc23)NC(=O)[C@H]([C@@H](C)O)NC(=O)[C@H](CCCCNC(=O)COCCOCCNC(=O)COCCOCCNC(=O)CC[C@H](NC(=O)CCCCCCCCCCCCCCCCC(=O)O)C(=O)O)NC(=O)[C@@H](NC(=O)[C@@H](CCCNC(=N)N)NC(C)=O)C(C)(C)SSC(C)(C)[C@@H](C(=O)N[C@@H](Cc2ccc(OCCN)cc2)C(=O)N[C@@H](Cc2ccc3ccccc3c2)C(=O)NC2(C(=O)N[C@@H](CCC(=O)O)C(=O)N[C@@H](CC(N)=O)C(=O)N[C@@H](Cc3cccnc3)C(=O)N(C)CC(N)=O)CCOCC2)NC1=O [Example 20, MeCO-r-Pen*-K(PEG2PEG2gEC18OH)-T-7MeW-K(Ac)-Pen*-AEF-2Nal-THP-E-N-3Pya-Sar-CONH2] (Ac-[dR][Pen]K([AEEA-AEEA-γGlu-C18 diacid])T[Trp(7-Me)]K(Ac)[Pen][AEF][2Nal][Thp]EN[3Pal][Sar]-NH2; disulfide 2-7)
0.042 | CC(=O)NCCCC[C@@H]1NC(=O)[C@H](Cc2c[nH]c3c(C)cccc23)NC(=O)[C@H]([C@@H](C)O)NC(=O)[C@H](CC(N)=O)NC(=O)[C@@H](NC(=O)[C@@H](CCCCNC(=O)CCOCCOCCOCCOCCOCCOCCNC(=O)CC[C@H](NC(=O)CCCCCCCCCCCCCCCCC(=O)O)C(=O)O)NC(C)=O)C(C)(C)SSC(C)(C)[C@@H](C(=O)N[C@@H](Cc2ccc(OCCN)cc2)C(=O)N[C@@H](Cc2ccc3ccccc3c2)C(=O)NC2(C(=O)N[C@@H](CCCCNC(C)=O)C(=O)N[C@@H](CC(N)=O)C(=O)N[C@@H](Cc3cccnc3)C(=O)N(C)CC(N)=O)CCOCC2)NC1=O [Example 60, MeCO-k(PEG6 gE C18OH)-Pen*-N-T-7MeW-K(Ac)-Pen*-AEF-2Nal-THP-K(Ac)-N-3Pya-Sar-CONH2] (Ac-[dK]([PEG6-γGlu-C18 diacid])[Pen]NT[Trp(7-Me)]K(Ac)[Pen][AEF][2Nal][Thp]K(Ac)N[3Pal][Sar]-NH2; disulfide 2-7)
0.017 | CC(=O)NCCCC[C@@H]1NC(=O)[C@H](Cc2c[nH]c3c(C)cccc23)NC(=O)[C@H]([C@@H](C)O)NC(=O)[C@H](CC(N)=O)NC(=O)[C@@H](NC(=O)[C@@H](CCCNC(=N)N)NC(=O)COCCOCCNC(=O)COCCOCCNC(=O)CC[C@H](NC(=O)CCCCCCCCCCCCCCC(=O)O)C(=O)O)C(C)(C)SSC(C)(C)[C@@H](C(=O)N[C@@H](Cc2ccc(OCCN)cc2)C(=O)N[C@@H](Cc2ccc3ccccc3c2)C(=O)NC2(C(=O)N[C@@H](CCCCNC(C)=O)C(=O)N[C@@H](CC(N)=O)C(=O)N[C@@H](Cc3cccnc3)C(=O)N(C)CC(N)=O)CCOCC2)NC1=O [Example 24, HOC16gEPEG2PEG2-r-Pen*-N-T-7MeW-K(Ac)-Pen*-AEF-2Nal-THP-K(Ac)-N-3Pya-Sar-CONH2] ({C16 diacid-γGlu-AEEA-AEEA}-[dR][Pen]NT[Trp(7-Me)]K(Ac)[Pen][AEF][2Nal][Thp]K(Ac)N[3Pal][Sar]-NH2; disulfide 2-7)
0.19 | CC(=O)NCCCC[C@@H]1NC(=O)[C@H](Cc2c[nH]c3c(C)cccc23)NC(=O)[C@H]([C@@H](C)O)NC(=O)[C@H](CC(N)=O)NC(=O)[C@@H](NC(C)=O)C(C)(C)SSC(C)(C)[C@@H](C(=O)N[C@@H](Cc2ccc(OCCN)cc2)C(=O)N[C@@H](Cc2ccc3ccccc3c2)C(=O)NC2(C(=O)N[C@@H](CCCCNC(=O)COCCOCCNC(=O)CC[C@H](NC(=O)CCCCCCCCCCCCCCCCC(=O)O)C(=O)O)C(=O)N[C@@H](CC(N)=O)C(=O)N[C@@H](Cc3cccnc3)C(=O)N(C)CC(N)=O)CCOCC2)NC1=O [Example 35, MeCO-Pen*-N-T-7MeW-K(Ac)-Pen*-AEF-2Nal-THP-K(PEG2gEC18OH)-N-3Pya-Sar-CONH2] (Ac-[Pen]NT[Trp(7-Me)]K(Ac)[Pen][AEF][2Nal][Thp]K([AEEA-γGlu-C18 diacid])N[3Pal][Sar]-NH2; disulfide 1-6)
0.06 | CC(=O)NCCCC[C@@H]1NC(=O)[C@H](Cc2c[nH]c3c(C)cccc23)NC(=O)[C@H]([C@@H](C)O)NC(=O)[C@H](CC(N)=O)NC(=O)[C@@H](NC(C)=O)C(C)(C)SSC(C)(C)[C@@H](C(=O)N[C@@H](Cc2ccc(OCCN)cc2)C(=O)N[C@@H](Cc2ccc3ccccc3c2)C(=O)NC2(C(=O)N[C@@H](CCCCNC(=O)CC[C@H](NC(=O)CCCCCCCCCCCCCCC(=O)O)C(=O)O)C(=O)N[C@@H](CC(N)=O)C(=O)N[C@@H](Cc3cccnc3)C(=O)N(C)CC(N)=O)CCOCC2)NC1=O [Example 29, MeCO-Pen*-N-T-7MeW-K(Ac)-Pen*-AEF-2Nal-THP-K(gEC16OH)-N-3Pya-Sar-CONH2] (Ac-[Pen]NT[Trp(7-Me)]K(Ac)[Pen][AEF][2Nal][Thp]K([γGlu-C16 diacid])N[3Pal][Sar]-NH2; disulfide 1-6)
0.15 | CC(=O)NCCCC[C@@H]1NC(=O)[C@H](Cc2c[nH]c3c(C)cccc23)NC(=O)[C@H]([C@@H](C)O)NC(=O)[C@H](CC(N)=O)NC(=O)[C@@H](NC(C)=O)C(C)(C)SSC(C)(C)[C@@H](C(=O)N[C@@H](Cc2ccc(OCCN)cc2)C(=O)N[C@@H](Cc2ccc3ccccc3c2)C(=O)NC2(C(=O)N[C@@H](CCCCNC(=O)COCCOCCNC(=O)COCCOCCNC(=O)[C@H]3CCCN3C(=O)[C@H]3CCCN3C(=O)[C@H]3CCCN3C(=O)CC[C@H](NC(=O)CCCCCCCCCCCCCCCCC(=O)O)C(=O)O)C(=O)N[C@@H](CC(N)=O)C(=O)N[C@@H](Cc3cccnc3)C(=O)N(C)CC(N)=O)CCOCC2)NC1=O [Example 108, MeCO-Pen*-N-T-7MeW-K(Ac)-Pen*-AEF-2Nal-THP-K(PEG2PEG2pppgEC18OH)-N-3Pya-Sar-CONH2]
0.15 | CC(=O)NCCCC[C@@H]1NC(=O)[C@H](Cc2c[nH]c3c(C)cccc23)NC(=O)[C@H]([C@@H](C)O)NC(=O)[C@H](CC(N)=O)NC(=O)[C@@H](NC(C)=O)C(C)(C)SSC(C)(C)[C@@H](C(=O)N[C@@H](Cc2ccc(OCCN)cc2)C(=O)N[C@@H](Cc2ccc3ccccc3c2)C(=O)NC2(C(=O)N[C@@H](CCCCNC(=O)COCCOCCNC(=O)COCCOCCNC(=O)CC[C@H](NC(=O)[C@H](CNC(=O)CCCCCCCCCCCCCCC(=O)O)NC(=O)CCCCCCCCCCCCCCC(=O)O)C(=O)O)C(=O)N[C@@H](CC(N)=O)C(=O)N[C@@H](Cc3cccnc3)C(=O)N(C)CC(N)=O)CCOCC2)NC1=O [Example 116, MeCO-Pen*-N-T-7MeW-K(Ac)-Pen*-AEF-2Nal-THP-K(PEG2PEG2gE-DAP(C16OH)2)-N-3Pya-Sar-CONH2]
0.34 | CC(=O)NCCCC[C@@H]1NC(=O)[C@H](Cc2c[nH]c3c(C)cccc23)NC(=O)[C@H]([C@@H](C)O)NC(=O)[C@H](CC(N)=O)NC(=O)[C@@H](NC(C)=O)C(C)(C)SSC(C)(C)[C@@H](C(=O)N[C@@H](Cc2ccc(OCCN)cc2)C(=O)N[C@@H](Cc2ccc3ccccc3c2)C(=O)NC2(C(=O)N[C@@H](CCCCNC(=O)CC[C@H](NC(=O)CCCCCCCCCCCCCCCCCCC(=O)O)C(=O)O)C(=O)N[C@@H](CC(N)=O)C(=O)N[C@@H](Cc3cccnc3)C(=O)N(C)CC(N)=O)CCOCC2)NC1=O [Example 89, MeCO-Pen*-N-T-7MeW-K(Ac)-Pen*-AEF-2Nal-THP-K(gEC20OH)-N-3Pya-Sar-CONH2] (Ac-[Pen]NT[Trp(7-Me)]K(Ac)[Pen][AEF][2Nal][Thp]K([γGlu-C20 diacid])N[3Pal][Sar]-NH2; disulfide 1-6)
0.0082 | CC(=O)NCCCC[C@@H]1NC(=O)[C@H](Cc2c[nH]c3c(C)cccc23)NC(=O)[C@H]([C@@H](C)O)NC(=O)[C@H](CC(N)=O)NC(=O)[C@@H](NC(C)=O)C(C)(C)SSC(C)(C)[C@@H](C(=O)N[C@@H](Cc2ccc(OCCN)cc2)C(=O)N[C@@H](Cc2ccc3ccccc3c2)C(=O)NC2(C(=O)N[C@@H](CCCCNC(=O)COCCOCCNC(=O)COCCOCCNC(=O)CC[C@H](NC(=O)CCCCCCCCCOc3cccc(C(=O)O)c3)C(=O)O)C(=O)N[C@@H](CC(N)=O)C(=O)N[C@@H](Cc3cccnc3)C(=O)N(C)CC(N)=O)CCOCC2)NC1=O [Example 97, MeCO-Pen*-N-T-7MeW-K(Ac)-Pen*-AEF-2Nal-THP-K(PEG2PEG2gEmXOH)-N-3Pya-Sar-CONH2] (Ac-[Pen]NT[Trp(7-Me)]K(Ac)[Pen][AEF][2Nal][Thp]K([AEEA-AEEA-γGlu-Decanoyl(10-O(3-COOH-Ph))])N[3Pal][Sar]-NH2; disulfide 1-6)
